Data: ChEMBL document CHEMBL5257103, “Identification of small molecule inhibitors against MMP-14 via High-Throughput screening” (Bioorg Med Chem, 2023)
pIC50, pKd: −log10 of the molar value. Activity calls are given as the source filed them. No cut-off for these calls is given here.

Legend:
[1] = biological target: 72 kDa type IV collagenase (Mus musculus) (UniProt P33434); assay: Inhibition of MMP-2 in mouse fibroblast assessed as reduction in concanavalin-induced MMP-2 activity by measuring gelatin digestion incubated for 24 hrs by SDS-PAGE gel electrophoresis based gelatin zymography analysis; assay type: cell-based
72 kDa type IV collagenase (Mus musculus), sequence (P33434 whole entry): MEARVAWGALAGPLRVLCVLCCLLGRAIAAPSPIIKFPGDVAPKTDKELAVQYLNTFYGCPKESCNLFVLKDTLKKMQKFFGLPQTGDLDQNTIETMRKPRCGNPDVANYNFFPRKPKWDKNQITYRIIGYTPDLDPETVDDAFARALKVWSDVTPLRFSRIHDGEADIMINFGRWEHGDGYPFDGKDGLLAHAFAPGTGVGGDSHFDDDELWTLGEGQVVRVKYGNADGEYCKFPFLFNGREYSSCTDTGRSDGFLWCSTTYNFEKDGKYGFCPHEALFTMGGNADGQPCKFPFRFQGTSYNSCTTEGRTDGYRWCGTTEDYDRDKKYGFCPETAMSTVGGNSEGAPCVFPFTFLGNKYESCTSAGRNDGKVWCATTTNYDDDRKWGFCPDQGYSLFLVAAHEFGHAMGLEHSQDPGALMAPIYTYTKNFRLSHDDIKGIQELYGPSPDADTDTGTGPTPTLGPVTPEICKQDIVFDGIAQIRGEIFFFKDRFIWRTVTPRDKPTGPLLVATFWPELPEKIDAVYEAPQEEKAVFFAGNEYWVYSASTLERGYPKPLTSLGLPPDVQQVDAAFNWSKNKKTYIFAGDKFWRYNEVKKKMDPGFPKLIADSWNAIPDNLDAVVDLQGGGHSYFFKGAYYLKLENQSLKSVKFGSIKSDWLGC

[2] = biological target: T1, Matrix metalloproteinase-14 (Homo sapiens, UniProt P50281); assay: Inhibition of MMP-14 (unknown origin) using 5-FAM-TDVPNGFHVS (QXL520)-NH2 as fluorogenic substrate preincubated for 10 mins followed by substrate addition and measured for 50 mins by microplate reader assay
[3] = biological target: T1, Matrix metalloproteinase-14; assay: Inhibition of MMP-14 (unknown origin) using 5-FAM-TDVPNGFHVS (QXL520)-NH2 as fluorogenic substrate at 12.5 to 200 uM preincubated for 10 mins followed by substrate addition and measured for 50 mins by microplate reader assay; details: dose 12.5-200 µM, time 60.0 min
[4] = biological target: T1, Matrix metalloproteinase-14; assay: Inhibition of MMP-14 (unknown origin) using 5-FAM-TDVPNGFHVS (QXL520)-NH2 as fluorogenic substrate at 47.6 uM preincubated for 10 mins followed by substrate addition by primary HTS analysis relative to control
Collagenase 3 [5] = biological target: T2, Collagenase 3 (Homo sapiens, UniProt P45452); assay: Inhibition of MMP-13 (unknown origin) using QXL520-gamma-Abu-Pro-Cha-Abu-Smc-His-Ala-Dab(5-FAM)-Ala-Lys-NH2 as fluorogenic substrate preincubated for 10 mins followed by substrate addition and measured for 25 mins by microplate reader assay
[6] = biological target: T3, Matrix metalloproteinase-9 (Homo sapiens, UniProt P14780); assay: Inhibition of MMP-9 (unknown origin) using QXL520-gamma-Abu-Pro-Cha-Abu-Smc-His-Ala-Dab(5-FAM)-Ala-Lys-NH2 as fluorogenic substrate preincubated for 10 mins followed by substrate addition and measured for 25 mins by microplate reader assay
T3 sequence (P14780 whole entry): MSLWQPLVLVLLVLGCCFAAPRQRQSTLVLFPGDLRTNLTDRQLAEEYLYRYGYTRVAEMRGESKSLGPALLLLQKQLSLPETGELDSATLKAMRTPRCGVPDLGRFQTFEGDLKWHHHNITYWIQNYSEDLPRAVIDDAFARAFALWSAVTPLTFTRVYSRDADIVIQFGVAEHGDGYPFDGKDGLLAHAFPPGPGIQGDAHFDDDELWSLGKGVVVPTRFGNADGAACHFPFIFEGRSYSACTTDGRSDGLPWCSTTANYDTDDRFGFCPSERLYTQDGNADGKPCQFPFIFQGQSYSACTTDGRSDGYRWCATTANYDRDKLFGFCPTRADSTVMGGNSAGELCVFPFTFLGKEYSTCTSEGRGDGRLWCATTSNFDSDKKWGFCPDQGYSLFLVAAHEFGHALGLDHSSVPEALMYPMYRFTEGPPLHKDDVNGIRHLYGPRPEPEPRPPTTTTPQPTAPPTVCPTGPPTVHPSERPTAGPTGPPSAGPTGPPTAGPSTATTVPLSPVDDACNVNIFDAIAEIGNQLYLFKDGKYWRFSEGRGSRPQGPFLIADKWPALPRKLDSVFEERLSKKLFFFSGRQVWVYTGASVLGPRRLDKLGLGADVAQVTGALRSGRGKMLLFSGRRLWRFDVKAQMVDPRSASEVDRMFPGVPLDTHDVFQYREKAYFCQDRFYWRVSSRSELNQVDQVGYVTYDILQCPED

[7] = biological target: T4, Matrilysin (Homo sapiens) (UniProt P09237); assay: Inhibition of MMP-7 (unknown origin) using QXL520-gamma-Abu-Pro-Cha-Abu-Smc-His-Ala-Dab(5-FAM)-Ala-Lys-NH2 as fluorogenic substrate at 1 to 100 uM preincubated for 10 mins followed by substrate addition and measured for 25 mins by microplate reader assay; details: dose 1-100 µM, time 35.0 min
T4 sequence (whole entry): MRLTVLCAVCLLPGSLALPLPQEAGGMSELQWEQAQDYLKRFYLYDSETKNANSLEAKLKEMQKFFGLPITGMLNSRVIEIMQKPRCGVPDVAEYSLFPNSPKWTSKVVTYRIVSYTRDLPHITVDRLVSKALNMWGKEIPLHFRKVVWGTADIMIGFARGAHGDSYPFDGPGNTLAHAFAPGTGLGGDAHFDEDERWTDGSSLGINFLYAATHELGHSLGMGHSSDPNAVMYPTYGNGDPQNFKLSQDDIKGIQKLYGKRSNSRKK

[8] = biological target: 72 kDa type IV collagenase (Homo sapiens) (UniProt P08253); assay: Inhibition of MMP-2 (unknown origin) using QXL520-gamma-Abu-Pro-Cha-Abu-Smc-His-Ala-Dab(5-FAM)-Ala-Lys-NH2 as fluorogenic substrate at 1 to 100 uM preincubated for 10 mins followed by substrate addition and measured for 25 mins by microplate reader assay; details: dose 1-100 µM, time 35.0 min
72 kDa type IV collagenase (Homo sapiens), sequence (P08253 110-660 limits assumed): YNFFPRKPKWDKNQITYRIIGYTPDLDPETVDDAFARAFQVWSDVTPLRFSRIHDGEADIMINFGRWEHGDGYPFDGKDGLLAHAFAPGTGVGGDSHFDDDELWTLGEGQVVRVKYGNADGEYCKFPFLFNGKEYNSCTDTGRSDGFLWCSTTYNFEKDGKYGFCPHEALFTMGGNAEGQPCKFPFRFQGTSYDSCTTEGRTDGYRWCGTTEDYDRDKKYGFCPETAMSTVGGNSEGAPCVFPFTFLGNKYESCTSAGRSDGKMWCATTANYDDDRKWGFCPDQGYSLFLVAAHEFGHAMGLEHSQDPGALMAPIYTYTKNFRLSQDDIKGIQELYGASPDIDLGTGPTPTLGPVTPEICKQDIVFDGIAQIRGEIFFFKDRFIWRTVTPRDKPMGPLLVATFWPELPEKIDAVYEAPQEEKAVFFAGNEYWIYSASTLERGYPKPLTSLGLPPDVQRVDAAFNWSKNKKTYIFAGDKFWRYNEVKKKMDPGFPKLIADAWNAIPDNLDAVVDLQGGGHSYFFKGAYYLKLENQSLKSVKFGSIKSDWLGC

[9] = Cytotoxicity against human HUVEC cells assessed as cell viability upto 100 uM incubated for 4 hrs by MTS assay; assay type: toxicity, cell-based; details: read-out: Activity
[10] = biological target: T1, Matrix metalloproteinase-14; assay: Binding affinity to […] sensor chip immobilized MMP-14 catalytic domain (unknown origin) assessed as equilibrium dissociation constant by surface plasmon resonance analysis
[11] = biological target: 72 kDa type IV collagenase (Homo sapiens) (UniProt P08253); assay: Inhibition of MMP-2 (unknown origin) using QXL520-gamma-Abu-Pro-Cha-Abu-Smc-His-Ala-Dab(5-FAM)-Ala-Lys-NH2 as fluorogenic substrate at 100 uM preincubated for 10 mins followed by substrate addition and measured for 25 mins by microplate reader assay; details: time 35.0 min
[12] = biological target: T3, Matrix metalloproteinase-9; assay: Inhibition of MMP-9 (unknown origin) using QXL520-gamma-Abu-Pro-Cha-Abu-Smc-His-Ala-Dab(5-FAM)-Ala-Lys-NH2 as fluorogenic substrate at 1 to 100 uM preincubated for 10 mins followed by substrate addition and measured for 25 mins by microplate reader assay; details: dose 1-100 µM, time 35.0 min
Collagenase 3 [13] = biological target: T2, Collagenase 3; assay: Inhibition of MMP-13 (unknown origin) using QXL520-gamma-Abu-Pro-Cha-Abu-Smc-His-Ala-Dab(5-FAM)-Ala-Lys-NH2 as fluorogenic substrate at 1 to 100 uM preincubated for 10 mins followed by substrate addition and measured for 25 mins by microplate reader assay; details: dose 1-100 µM, time 35.0 min
Collagenase 3 [14] = biological target: T2, Collagenase 3; assay: Inhibition of MMP-13 (unknown origin) using QXL520-gamma-Abu-Pro-Cha-Abu-Smc-His-Ala-Dab(5-FAM)-Ala-Lys-NH2 as fluorogenic substrate at 100 uM preincubated for 10 mins followed by substrate addition and measured for 25 mins by microplate reader assay; details: time 35.0 min
[15] = biological target: T3, Matrix metalloproteinase-9; assay: Inhibition of MMP-9 (unknown origin) using QXL520-gamma-Abu-Pro-Cha-Abu-Smc-His-Ala-Dab(5-FAM)-Ala-Lys-NH2 as fluorogenic substrate at 100 uM preincubated for 10 mins followed by substrate addition and measured for 25 mins by microplate reader assay; details: time 35.0 min
[16] = biological target: T4, Matrilysin (Homo sapiens); assay: Inhibition of MMP-7 (unknown origin) using QXL520-gamma-Abu-Pro-Cha-Abu-Smc-His-Ala-Dab(5-FAM)-Ala-Lys-NH2 as fluorogenic substrate at 100 uM preincubated for 10 mins followed by substrate addition and measured for 25 mins by microplate reader assay; details: time 35.0 min

| Structure (SMILES) | inhibition [1] | pIC50 [2] | inhibition [3] | inhibition [4] | pIC50 (Collagenase 3 [5]) | pIC50 [6] | inhibition [7] | inhibition [8] | viability at 4 h, up to 100 µM [9] [%] | pKd [10] | inhibition [11] [%] | inhibition [12] | inhibition (Collagenase 3 [13]) | inhibition (Collagenase 3 [14]) [%] | inhibition [15] [%] | inhibition [16] [%] |
| --- | --- | --- | --- | --- | --- | --- | --- | --- | --- | --- | --- | --- | --- | --- | --- | --- |
| Nc1cc(Cl)c2cccnc2c1O | Active | 4.15 | Dose-Dependent Effect | – | – | – | – | – | – | – | – | – | – | – | – | – |
| CCCC(C)C1(CC)C(=O)NC(=O)NC1=O (stereo unspecified) | – | – | – | > 85% | – | – | – | – | – | – | – | – | – | – | – | – |
| Oc1c(Cl)cc(Cl)c2cccnc12 [CHLOROXINE] | Active | 4.59 | – | Active | 4.71 | 4.80 | inactive | inactive | > 95 | 5.62 | – | – | – | – | – | – |
| Oc1c(I)cc(Cl)c2cccnc12 [CLIOQUINOL] | Active | 4.57 | – | 83% | – | – | inactive | inactive | > 95 | 5.92 | < 5 | inactive | inactive | < 5 | < 5 | < 5 |
